# Assay results: patent US20250320252A1 (The Scripps Research Institute, priority 2021, published 2025)
# “And” between values parts separate entries of the source, which are not always exact repeats. Equal values may be shown once. Read-outs that look alike come from different tables or passages of the source. Numbered stars: 1 amine (or outer) side, 2 acyl side, 3 side chain; on linkers, the order of the positions; unused ones are H or OH. Bridge positions count the residues as written; N and C are the ends. Square brackets hold non-standard residues; d marks the D form. Peptide text beside a SMILES is read from it. X2 = O=C(O)CCCCCCCCCCCCCCCCCCC(=O)N[C@@H](CCCCNC(=O)CCOCCOCCNC(=O)CCOCCOCCNC(=O)CCC(=O)N(CCNC(=O)C[*:1])CCNC(=O)C[*:2])C(=O)O; Aib = CC(C)(N)C(=O)O
# What was measured:
# human GIPR = biological target: T1, human GIPR (Homo sapiens, UniProt P48546); test: In vitro receptor activation reporter assay (CRE-Luc), HEK293-GIPR-CRE; assay type: cell-based
# T1 construct: expressed in transfected cells
# T1 sequence (P48546 22-466): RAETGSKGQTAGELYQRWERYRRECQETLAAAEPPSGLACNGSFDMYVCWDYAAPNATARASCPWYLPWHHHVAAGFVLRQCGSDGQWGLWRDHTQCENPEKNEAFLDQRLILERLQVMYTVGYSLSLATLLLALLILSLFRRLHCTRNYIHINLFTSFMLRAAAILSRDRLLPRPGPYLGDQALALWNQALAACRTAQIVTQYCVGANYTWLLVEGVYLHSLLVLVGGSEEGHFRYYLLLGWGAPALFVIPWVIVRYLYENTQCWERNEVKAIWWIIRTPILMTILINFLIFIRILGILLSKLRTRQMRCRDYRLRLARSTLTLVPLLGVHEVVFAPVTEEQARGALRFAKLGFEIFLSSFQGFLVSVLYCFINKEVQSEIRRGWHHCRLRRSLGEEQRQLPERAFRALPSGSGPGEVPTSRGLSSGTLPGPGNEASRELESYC
# Source text: HEK293 cells were infected with lentivirus encoding firefly luciferase gene under the control of cAMP responsive element (CRE) promoter (Qiagen, The Netherlands) and then were selected using 1 g mL^−1 puromycin (Life Technologies, Carlsbad) for 1 week. The surviving cells (referred to as CRE-HEK293) were expanded and then transfected with a G418 selective mammalian expression plasmid encoding human GLP-1R or GIPR. In brief, GLP-1R or GIPR plasmid was transfected into CRE-HEK293 cells using Lipofectamine 2000 and selected with 400 g mL^−1 Geneticin (Life Technologies, Carlsbad, CA). Single colony stable cell line overexpressing CRE-luciferase and GLP-1R or GIPR (HEK293-GLP-1R-CRE or HEK293-GIPR-CRE) was then established for in vitro activity assay.
# (§1) The EC50 of each peptide was determined using GraphPad Prism 6 software (GraphPad, San Diego, CA).
# human GLP-1R = biological target: T2, human GLP-1R (Homo sapiens, UniProt P43220); test: In vitro receptor activation reporter assay (CRE-Luc), HEK293-GLP-1R-CRE; assay type: cell-based; details: read-out: EC50 [nM] GLP1R
# T2 construct: expressed in transfected cells
# Procedure: as §1
# HEK293 cells were infected with lentivirus encoding firefly luciferase gene under the control of cAMP responsive element (CRE) promoter (Qiagen, The Netherlands) and then were selected using 1 g/mL puromycin (Life Technologies, Carlsbad) for 1 week. The surviving cells (referred to as CRE-HEK293) were expanded and then transfected with a G418 selective mammalian expression plasmid encoding human GLP-1R. In brief, GLP-1R plasmid was transfected into CRE-HEK293 cells using Lipofectamine 2000 and selected with 400 g/mL Geneticin (Life Technologies, Carlsbad, CA). Single colony stable cell line overexpressing CRE-luciferase and GLP1R was then established for in vitro activity assay.
# [1] = Pharmacokinetics in CD-1 mouse, plasma concentration by LC-MS; assay type: in vivo; details: individual animals
# Procedure: The peptide plasma concentration at various time points was determined using LC-MS.
# [2] = Table 8, read-out: EC50 [nM] GIPR
# T2 sequence (P43220 24-463): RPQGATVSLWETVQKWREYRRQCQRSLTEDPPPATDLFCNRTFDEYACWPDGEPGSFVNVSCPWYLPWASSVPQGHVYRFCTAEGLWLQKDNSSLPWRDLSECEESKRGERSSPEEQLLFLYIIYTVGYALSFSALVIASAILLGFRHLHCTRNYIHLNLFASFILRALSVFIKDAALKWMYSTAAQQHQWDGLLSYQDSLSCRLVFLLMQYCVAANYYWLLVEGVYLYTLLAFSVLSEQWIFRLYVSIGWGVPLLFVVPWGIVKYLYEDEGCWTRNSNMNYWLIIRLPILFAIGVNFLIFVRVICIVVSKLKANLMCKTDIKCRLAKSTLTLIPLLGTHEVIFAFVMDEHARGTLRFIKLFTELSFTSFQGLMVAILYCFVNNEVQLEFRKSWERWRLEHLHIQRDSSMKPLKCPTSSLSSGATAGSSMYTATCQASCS
compound,measurement,setting,value
"CC[C@H](C)[C@H](NC(=O)[C@H](CC(C)C)NC(=O)[C@H](Cc1c[nH]c2ccccc12)NC(=O)[C@H](CC(N)=O)NC(=O)[C@@H](NC(=O)[C@H](Cc1ccccc1)NC(=O)[C@@H]1CSCC(=O)NCCN(C(=O)CCC(=O)NCCOCCOCCC(=O)NCCOCCOCCC(=O)NCCCC[C@H](NC(=O)CCCCCCCCCCCCCCCCCCC(=O)O)C(=O)O)CCNC(=O)CSC[C@H](NC(=O)[C@H](Cc2ccc(O)cc2)NC(=O)[C@@H](NC(=O)[C@H](CO)NC(=O)[C@@H](NC(=O)[C@H](CC(=O)O)NC(=O)[C@H](CO)NC(=O)[C@@H](NC(=O)[C@H](Cc2ccccc2)NC(=O)[C@@H](NC(=O)CNC(=O)[C@H](CCC(=O)O)NC(=O)C(C)(C)NC(=O)[C@@H](N)Cc2ccc(O)cc2)[C@@H](C)O)[C@@H](C)CC)C(C)C)[C@@H](C)CC)C(=O)N[C@@H](CC(=O)O)C(=O)N[C@@H](CCCCN)C(=O)N[C@@H](CCC(N)=O)C(=O)N[C@@H](C)C(=O)N[C@@H](C)C(=O)NC(C)(C)C(=O)N1)C(C)C)C(=O)N[C@@H](C)C(=O)NCC(=O)NCC(=O)N1CCC[C@H]1C(=O)N[C@@H](CO)C(=O)N[C@@H](CO)C(=O)NCC(=O)N[C@@H](C)C(=O)N1CCC[C@H]1C(=O)N1CCC[C@H]1C(=O)N1CCC[C@H]1C(=O)N[C@@H](CO)C(N)=O [7I, 10V, 27I, C(14-21) - C20L5A, YAibEGT-FISDV-SIYXD-KQAAAib-XFVNW-LIAGG-PSSGA-PPPS-NH2 (where each X is C)] (H-Y[Aib]EGTFISDVSIYCDKQAA[Aib]CFVNWLIAGGPSSGAPPPS-NH2; linker 14-21 via X2)",EC50,human GIPR; [2],303 nM
same,EC50,human GLP-1R; Table 8,~13700 nM
"CC[C@H](C)[C@H](NC(=O)[C@H](CO)NC(=O)[C@H](Cc1ccc(O)cc1)NC(=O)[C@H](CC(=O)O)NC(=O)[C@H](CO)NC(=O)[C@@H](NC(=O)[C@H](Cc1ccccc1)NC(=O)[C@@H](NC(=O)CNC(=O)[C@H](CCC(=O)O)NC(=O)C(C)(C)NC(=O)[C@@H](N)Cc1ccc(O)cc1)[C@@H](C)O)[C@@H](C)O)C(=O)N[C@@H](Cc1ccc(O)cc1)C(=O)N[C@H]1CSCC(=O)NCCN(C(=O)CCC(=O)NCCOCCOCCC(=O)NCCOCCOCCC(=O)NCCCC[C@H](NC(=O)CCCCCCCCCCCCCCCCCCC(=O)O)C(=O)O)CCNC(=O)CSC[C@@H](C(=O)N[C@@H](Cc2ccccc2)C(=O)N[C@H](C(=O)N[C@@H](CC(N)=O)C(=O)N[C@@H](Cc2c[nH]c3ccccc23)C(=O)N[C@@H](CC(C)C)C(=O)N[C@@H](CC(C)C)C(=O)N[C@@H](C)C(=O)NCC(=O)NCC(=O)N2CCC[C@H]2C(=O)N[C@@H](CO)C(=O)N[C@@H](CO)C(=O)NCC(=O)N[C@@H](C)C(=O)N2CCC[C@H]2C(=O)N2CCC[C@H]2C(=O)N2CCC[C@H]2C(=O)N[C@@H](CO)C(N)=O)C(C)C)NC(=O)C(C)(C)NC(=O)[C@H](C)NC(=O)[C@H](C)NC(=O)[C@H](CCC(N)=O)NC(=O)[C@H](CCCCN)NC(=O)[C@H](CC(=O)O)NC1=O [C(14-21) - C20L5A, YAibEGT-FTSDY-SIYXD-KQAAAib-XFVNW-LLAGG-PSSGA-PPPS-NH2 (where each X is C)]",EC50,human GIPR; [2],0.05 nM
same,EC50,"human GIPR; unnumbered table (Table 10), average of runs, read-out: GIPR (nM) [EC50] average",0.05 nM
same,EC50,"human GIPR; unnumbered table (Table 10), run 02/19, read-out: GIPR (nM) [EC50] 02/19",0.07 nM
same,EC50,"human GIPR; unnumbered table (Table 10), run 03/25, read-out: GIPR (nM) [EC50] 03/25",0.04 nM
same,EC50,"human GIPR; unnumbered table (Table 10), run 03/26, read-out: GIPR (nM) [EC50] 03/26",0.04 nM
same,EC50,human GLP-1R; Table 8,0.2 nM
"CC[C@H](C)[C@H](NC(=O)[C@H](CC(C)C)NC(=O)[C@H](Cc1c[nH]c2ccccc12)NC(=O)[C@H](CC(N)=O)NC(=O)[C@@H](NC(=O)[C@H](Cc1ccccc1)NC(=O)[C@@H]1CSCC(=O)NCCN(C(=O)CCC(=O)NCCOCCOCCC(=O)NCCOCCOCCC(=O)NCCCC[C@H](NC(=O)CCCCCCCCCCCCCCCCC(=O)O)C(=O)O)CCNC(=O)CSC[C@H](NC(=O)[C@H](Cc2ccc(O)cc2)NC(=O)[C@@H](NC(=O)[C@H](CO)NC(=O)[C@H](Cc2ccc(O)cc2)NC(=O)[C@H](CC(=O)O)NC(=O)[C@H](CO)NC(=O)[C@@H](NC(=O)[C@H](Cc2ccccc2)NC(=O)[C@@H](NC(=O)CNC(=O)[C@H](CCC(=O)O)NC(=O)C(C)(C)NC(=O)[C@@H](N)Cc2ccc(O)cc2)[C@@H](C)O)[C@@H](C)O)[C@@H](C)CC)C(=O)N[C@@H](CC(=O)O)C(=O)N[C@@H](CCCCN)C(=O)N[C@@H](CCC(N)=O)C(=O)N[C@@H](C)C(=O)N[C@@H](C)C(=O)NC(C)(C)C(=O)N1)C(C)C)C(=O)N[C@@H](C)C(=O)NCC(=O)NCC(=O)N1CCC[C@H]1C(=O)N[C@@H](CO)C(=O)N[C@@H](CO)C(=O)NCC(=O)N[C@@H](C)C(=O)N1CCC[C@H]1C(=O)N1CCC[C@H]1C(=O)N1CCC[C@H]1C(=O)N[C@@H](CO)C(N)=O [mCMZ370, YAibEGT-FTSDY-SIYXD-KQAAAib-XFVNW-LIAGG-PSSGA-PPPS-NH2 (where each X is C)]",Tlast,[1]; 1 mg/kg I.V.,72 h
same,AUC—%Extrap—pred,"[1]; 1 mg/kg I.V., 1 mg/kg",0.39% and 0.38% and 0.6%
same,Cl—pred,"[1]; 1 mg/kg I.V., 1 mg/kg",0.162 mL/min/kg
same,Vz—pred,"[1]; 1 mg/kg I.V., 1 mg/kg",0.099 L/kg
same,Tlast,[1]; 1 mg/kg S.C.,72 h
same,AUC—%Extrap—pred,"[1]; 1 mg/kg S.C., 1 mg/kg",0.26% and 0.31% and 0.19%
same,AUMC—%Extrap—pred,"[1]; 1 mg/kg S.C., 1 mg/kg",0.99%
same,Cl—Fpred,"[1]; 1 mg/kg S.C., 1 mg/kg",0.24 mL/min/kg and 0.21 mL/min/kg and 0.06 mL/min/kg
same,V—F—pred,"[1]; 1 mg/kg S.C., 1 mg/kg",0.2 L/kg and 0.15 L/kg and 0.13 L/kg
same,clearance,"[1]; mouse, in vivo, iv, 1 mg/kg, 1 mg/kg I.V., read-out: Cl—pred",0.112 mL/min/kg
"CC[C@H](C)[C@H](NC(=O)[C@H](CC(C)C)NC(=O)[C@H](Cc1c[nH]c2ccccc12)NC(=O)[C@H](CC(N)=O)NC(=O)[C@@H](NC(=O)[C@H](Cc1ccccc1)NC(=O)[C@@H]1CSCC(=O)NCCN(C(=O)CCC(=O)NCCOCCOCCC(=O)NCCOCCOCCC(=O)NCCCC[C@H](NC(=O)CCCCCCCCCCCCCCCCC(=O)O)C(=O)O)CCNC(=O)CSC[C@H](NC(=O)[C@H](Cc2ccc(O)cc2)NC(=O)[C@@H](NC(=O)[C@H](CO)NC(=O)[C@H](Cc2ccc(O)cc2)NC(=O)[C@H](CC(=O)O)NC(=O)[C@H](CO)NC(=O)[C@@H](NC(=O)[C@H](Cc2ccccc2)NC(=O)[C@@H](NC(=O)CNC(=O)[C@H](CCC(=O)O)NC(=O)C(C)(C)NC(=O)[C@@H](N)Cc2ccc(O)cc2)[C@@H](C)O)[C@@H](C)O)[C@@H](C)CC)C(=O)N[C@@H](CC(=O)O)C(=O)N[C@@H](CCCCN)C(=O)N[C@@H](CCC(N)=O)C(=O)N[C@@H](C)C(=O)N[C@@H](C)C(=O)NC(C)(C)C(=O)N1)C(C)C)C(=O)N[C@@H](C)C(=O)NCC(=O)NCC(=O)N1CCC[C@H]1C(=O)N[C@@H](CO)C(=O)N[C@@H](CO)C(=O)NCC(=O)N[C@@H](C)C(=O)N1CCC[C@H]1C(=O)N1CCC[C@H]1C(=O)N1CCC[C@H]1C(=O)N[C@@H](CO)C(N)=O [27I, C(14-21) - L5A, YAibEGT-FTSDY-SIYXD-KQAAAib-XFVNW-LIAGG-PSSGA-PPPS-NH2 (where each X is C)]",EC50,human GIPR; [2],0.03 nM
same,EC50,human GLP-1R; Table 8,0.04 nM
"CC[C@H](C)[C@H](NC(=O)[C@H](CO)NC(=O)[C@H](Cc1ccc(O)cc1)NC(=O)[C@H](CC(=O)O)NC(=O)[C@H](CO)NC(=O)[C@@H](NC(=O)[C@H](Cc1ccccc1)NC(=O)[C@@H](NC(=O)CNC(=O)[C@H](CCC(=O)O)NC(=O)C(C)(C)NC(=O)[C@@H](N)Cc1ccc(O)cc1)[C@@H](C)O)[C@@H](C)O)C(=O)N[C@@H](Cc1ccc(O)cc1)C(=O)N[C@@H](CC(C)C)C(=O)N[C@@H](CC(=O)O)C(=O)N[C@@H](CCCCN)C(=O)N[C@H]1CSCC(=O)NCCN(C(=O)CCC(=O)NCCOCCOCCC(=O)NCCOCCOCCC(=O)NCCCC[C@H](NC(=O)CCCCCCCCCCCCCCCCC(=O)O)C(=O)O)CCNC(=O)CSC[C@@H](C(=O)N[C@@H](Cc2c[nH]c3ccccc23)C(=O)N[C@@H](CC(C)C)C(=O)N[C@@H](CC(C)C)C(=O)N[C@@H](C)C(=O)NCC(=O)NCC(=O)N2CCC[C@H]2C(=O)N[C@@H](CO)C(=O)N[C@@H](CO)C(=O)NCC(=O)N[C@@H](C)C(=O)N2CCC[C@H]2C(=O)N2CCC[C@H]2C(=O)N2CCC[C@H]2C(=O)N[C@@H](CO)C(N)=O)NC(=O)[C@H](C(C)C)NC(=O)[C@H](Cc2ccccc2)NC(=O)[C@H](CCC(=O)O)NC(=O)C(C)(C)NC(=O)[C@H](C)NC(=O)[C@H](C)NC1=O [C(17-24) - L5A, YAibEGT-FTSDY-SIYLD-KXAAAib-EFVXW-LLAGG-PSSGA-PPPS-NH2 (where each X is C)]",EC50,"human GIPR; Table 9, read-out: EC50 [nM] GIPR",0.05 nM
same,EC50,human GLP-1R; Table 9,0.11 nM
